Assay results taken from patent publication US20030104487A1, “Neuropeptide receptor and uses thereof” (priority 2001, published 2003).

How the values were obtained:
EBI2 [1] = biological target: T1, EBI2 (Homo sapiens, UniProt P32249); assay: Response of EBI2 to CRF-family neuropeptides (test not specified); settings: general statement, no test named
EBI2 [2] = biological target: T1, EBI2; assay: β-Arrestin assay (GFP-β-arrestin clustering/internalisation); assay type: cell-based; set-up: expressed in transfected cells; host or cells: HEK 293; settings: HEK 293 cells transiently expressing EBI2 and GFP-β-arrestin; ligand ~500 nM, 30 minutes; confocal microscopy, FIG. 2
Excerpt: General principle of the assay: Agonist binding to the GPCR activates G-proteins and ultimately results in second messenger cascades to elicit a physiological response. In most cases receptors occupied by agonists undergo rapid phosphorylation by GPCR Kinases (GRKs). This in turn allows β-arrestin to bind to the GPCR preventing any further interaction between the GPCR and G-protein. Internalisation of the GPCR via clathrin coated pits follows as a result of arrestin-clathrin interactions (Krupnick, J. G. and Benovic, J. L. (1998) Annual Review of Pharmacological Toxicology, 38, 289-319). By employing fusion constructs of green fluorescent protein (GFP)-β arrestin, this receptor desensitisation can be visualised using confocal microscopy. In the absence of receptor activation in a transfected cell line, fluorescence associated with the β-arrestin-GFP is evenly distributed throughout the cytoplasm. Upon receptor activation by an agonist, cytosolic β-arrestin-GFP translocates to the cell surface reflecting the interaction with the activated receptor (Evans et al. 2001). […]
The receptor EBI2 and GFP-β-arrestin mammalian expression constructs were transiently transfected in to HEK 293 cells. […] The cells were then analysed using both confocal microscopy and the Cellomics ArrayScanII methodologies in order to identify internalisation of the ligand receptor GFP-β-arrestin complex. […]

EBI2 [3] = biological target: T1, EBI2; assay: Functional assay measuring intracellular calcium mobilisation (FLIPR); assay type: cell-based; settings: EBI2-expressing cells compared to mock-transfected cells; FIG. 1
Protocol: 5×10^6 cells of a suitable host cell line, chosen to express a low number of endogenous receptors (e.g. HEK293 or CHO-K1) and engineered to stably express certain Gα proteins (e.g. mouse Gα15 (Wilkie, T. M. et al (1991) Proc. Natl. Acad. Sci. 88, 10049-10053), a chimeric Gqi5/Gqo5 α-subunit, or human Gα16 (Amatruda, TT 3rd et al (1991) Proc. Natl. Acad. Sci. 88, 5587-5591)), were transiently transfected with 7.5 μg of cDNA encoding EBI2 in a suitable mammalian cell expression vector, or vector alone, using Lipofectamine Plus® reagent (Gibco BRL) as per the manufacturer's protocol. […]
Fluorescence Imaging Plate Reader (FLIPR®) technology was employed as a means to detect activation of EBI2 by various potential GPCR agonists.
Cells were transfected as described in Example 3. […] The FLIPR® processing involved reading the fluorescence for all samples for 2 minutes; during this time the fluorescence baseline was determined […]. The desired amount of compounds (i.e. potential GPCR agonists) was then automatically transferred to the wells and the fluorescence was continuously monitored for the remainder of the time. […]
Compounds capable of acting as agonists for the receptor were identified by them causing a transient rise in fluorescence, and therefore in intracellular calcium, in the cells.

T1 sequence (P32249 whole entry): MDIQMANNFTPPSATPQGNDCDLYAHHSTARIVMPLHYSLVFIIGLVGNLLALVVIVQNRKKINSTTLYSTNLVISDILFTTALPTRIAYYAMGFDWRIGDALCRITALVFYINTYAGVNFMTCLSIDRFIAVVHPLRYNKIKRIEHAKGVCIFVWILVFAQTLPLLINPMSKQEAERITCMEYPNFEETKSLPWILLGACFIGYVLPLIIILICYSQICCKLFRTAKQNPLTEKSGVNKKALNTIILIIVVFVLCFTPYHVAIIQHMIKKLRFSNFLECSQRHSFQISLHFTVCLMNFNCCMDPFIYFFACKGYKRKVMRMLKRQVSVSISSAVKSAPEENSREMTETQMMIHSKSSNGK

| Compound | receptor responds to the peptide (EBI2 [1]) | clustering of GFP-β-arrestin complex on the cell surface (EBI2 [2]) | fluorescence change over time (transient rise in intracellular calcium) (EBI2 [3]) |
| --- | --- | --- | --- |
| CC[C@H](C)[C@H](NC(=O)[C@@H](NC(=O)[C@H](CC(=O)O)NC(=O)[C@H](CC(C)C)NC(=O)[C@H](CC(C)C)NC(=O)[C@H](CC(C)C)NC(=O)[C@H](CCCNC(=N)N)NC(=O)[C@H](CC(N)=O)NC(=O)[C@H](CC(N)=O)NC(=O)[C@H](C)NC(=O)[C@H](C)NC(=O)[C@H](CCC(N)=O)NC(=O)[C@H](CCC(N)=O)NC(=O)[C@H](CCCCN)NC(=O)[C@H](CCC(=O)O)NC(=O)[C@H](CCCCN)NC(=O)[C@H](CCC(=O)O)NC(=O)[C@H](CCC(N)=O)NC(=O)[C@H](CCCCN)NC(=O)[C@H](CCC(=O)O)NC(=O)[C@@H](NC(=O)[C@H](CCC(=O)O)NC(=O)[C@@H](NC(=O)[C@H](CCSC)NC(=O)[C@H](CCCCN)NC(=O)[C@H](CCCNC(=N)N)NC(=O)[C@H](CC(C)C)NC(=O)[C@H](CC(C)C)NC(=O)[C@H](CCC(=O)O)NC(=O)[C@H](CC(C)C)NC(=O)[C@H](CO)NC(=O)[C@H](CC(C)C)NC(=O)[C@H](CC(=O)O)NC(=O)[C@@H](NC(=O)[C@H](CO)NC(=O)[C@@H](NC(=O)[C@@H]1CCCN1C(=O)[C@@H]1CCCN1C(=O)CNC(=O)[C@@H]1CCC(=O)N1)[C@@H](C)CC)[C@@H](C)CC)[C@@H](C)CC)[C@@H](C)CC)[C@@H](C)O)C(N)=O [sauvagine] | responds |  |  |
| urotensin I | responds | Clustering of the fluorescent GFP-β-arrestin complex is clearly observed | response of EBI2-expressing cells to urotensin I |
